As a reminder, the IC50 is the point on the concentration scale where inhibition reaches its midpoint.

Our source for the IC50 values is US20250154154A1 (Relay Binney Street, 2nd Floor, priority 2020, published 2025).

The target of one experiment is SRC (Homo sapiens, UniProt P12931). The experiment is described as follows: SRC Biochemical Assay Protocol (microfluidic mobility shift assay, FLPeptide4 substrate). In a few lines:
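Mobility-shift readout of phosphorylated FLPeptide4 (1.5 μM) after 90 min kinase reaction with 50 μM ATP and 0.26 nM SRC in pH 7.4 HEPES buffer. Compounds, tested 0.0017–100 μM, were preincubated 30 min with enzyme and peptide; IC50 from 4-parameter logistic fit versus neutral controls.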

The subject of the next experiment is RBE cells. The experiment is described as follows: Cell Viability Protocol (CellTiterGlo), RBE cells. It counts as cell-based. Particulars: RBE or SNU-1079 cells, 72 or 120 hour, cell line and time not given. The procedure:
RBE or SNU-1079 cells were cultured in T-75 or T-175 flasks at 37° C., 5% CO2, 95% relative humidity in RPMI 1640 medium with 10% FBS and 1% Penicillin/Streptomycin (media) and detached with 0.25% trypsin/EDTA at 80-90% confluency. Cells were then seeded in 40 μL media per well in 384-well flat-bottom polystyrene microplates (Corning Cat. No. 3570) at a seeding density of 1200 cells/well and incubated for 24 hours at 37° C. with 5% CO2, 95% relative humidity. On the next day, test compounds were prepared in 10 mM DMSO stock solution and diluted to the indicated concentrations in a 384-well compound source plate. DMSO was employed as a vehicle control. Compounds (40 nL) were transferred to 384-well cell culture plate(s) using the liquid handler Echo550. Plates were incubated at 37° C. with 5% CO2 for 72 hour or 120 hour (as indicated). CellTiterGlo reagent was warmed to 37° C. and added into each well (40 μL per well). Plates were incubated at room temperature for 30 min followed by reading on the EnSpire or EnVision plate reader. Relative viability (% remaining activity) was calculated relative to DMSO control and IC50 values were obtained from dose-response data fitted to a 4-parameter curve.
Background: Cellular ATP, detected with luciferase, serves as a proxy for viable cell number.

Molecules are shown by their SMILES.

Chain of SRC (P12931 whole entry, species assumed): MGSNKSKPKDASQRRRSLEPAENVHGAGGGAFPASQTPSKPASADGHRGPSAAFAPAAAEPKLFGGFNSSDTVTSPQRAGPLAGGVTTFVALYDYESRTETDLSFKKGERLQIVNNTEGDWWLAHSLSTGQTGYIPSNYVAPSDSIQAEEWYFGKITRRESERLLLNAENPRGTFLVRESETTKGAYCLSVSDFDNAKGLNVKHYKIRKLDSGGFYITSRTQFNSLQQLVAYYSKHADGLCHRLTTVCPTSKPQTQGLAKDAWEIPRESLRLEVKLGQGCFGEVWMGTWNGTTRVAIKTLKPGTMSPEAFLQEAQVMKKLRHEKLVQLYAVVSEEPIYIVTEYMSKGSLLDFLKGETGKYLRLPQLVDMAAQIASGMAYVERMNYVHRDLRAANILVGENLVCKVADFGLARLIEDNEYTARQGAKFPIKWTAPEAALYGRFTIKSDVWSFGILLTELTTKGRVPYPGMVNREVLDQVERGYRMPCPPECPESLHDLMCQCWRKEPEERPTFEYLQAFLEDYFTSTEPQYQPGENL

Regarding `C=CC(=O)N1CCC(N2CC(C#Cc3c(-c4ccc(Oc5ccccn5)cc4)c4c(N)ncnc4n3C)C2)C[C@H]1CO` (stereo partly drawn) [II-244, 1-((2S)-4-(3-((4-amino-7-methyl-5-(4-(pyridin-2-yloxy)phenyl)-7H-pyrrolo[2,3-d]pyrimidin-6-yl)ethynyl)azetidin-1-yl)-2-(hydroxymethyl)piperidin-1-yl)prop-2-en-1-one], the half-maximal inhibitory concentration (IC50) on SRC and in the experiment on RBE cells was 10 to 1000 nM in each case.

On to `C=CC(=O)N1CCC(C#Cc2c(-c3ccc(Oc4ccccc4)cc3)c3c(N)ncnc3n2C2CCCNC2)CC1` (centres unmarked) [Example I-60], for which the IC50 at SRC and in the experiment with RBE cells was 10 to 1000 nM throughout.

Take `CC(C)n1c(C#CC2CCN(Cc3ccccc3)CC2)c(-c2ccc(Oc3ccccc3)cc2)c2c(N)ncnc21` [II-145, 6-((1-benzylpiperidin-4-yl)ethynyl)-7-isopropyl-5-(4-phenoxyphenyl)-7H-pyrrolo[2,3-d]pyrimidin-4-amine]: the IC50 at SRC was in the range of 10 to 1000 nM; in the experiment on RBE cells, 1000 to 10000 nM.

Take `CC(C)n1c(C#CC2CCN(C(=O)/C=C/CN(C)C)CC2)c(-c2ccc(Oc3ccccc3)cc2)c2c(N)ncnc21` [Example I-48, (E)-1-(4-((4-amino-7-isopropyl-5-(4-phenoxyphenyl)-7H-pyrrolo[2,3-d]pyrimidin-6-yl)ethynyl)piperidin-1-yl)-4-(dimethylamino)but-2-en-1-one]: the IC50 at SRC and in the experiment with RBE cells was 10 to 1000 nM throughout.

In the case of `C=CC(=O)N1CCC(C#Cc2c(-c3ccc(Oc4ccccc4)cc3)c3c(N)ncnc3n2C2CC(O)C2)CC1` (centres unmarked) [Example I-69], the IC50 on SRC and with RBE cells was 10 to 1000 nM throughout.

With `CC(C)n1c(C#CC2CCN(C(=O)CCl)CC2)c(-c2ccc(Oc3ccccc3)cc2)c2c(N)ncnc21` [Example I-29], the IC50 at SRC and with RBE cells was 10 to 1000 nM in each case.

Turning to `COCCN(C)C/C=C/C(=O)N1C[C@@H]2[C@@H](C#Cc3c(-c4ccc(Oc5ccccc5)cc4)c4c(N)ncnc4n3C)[C@@H]2C1` [II-224, (E)-1-((1R,5S,6s)-6-((4-amino-7-methyl-5-(4-phenoxyphenyl)-7H-pyrrolo[2,3-d]pyrimidin-6-yl)ethynyl)-3-azabicyclo[3.1.0]hexan-3-yl)-4-((2-methoxyethyl) (methyl)amino)but-2-en-1-one], the IC50 at SRC and with RBE cells was 10 to 1000 nM each time.

Turning to `C=CC(=O)N1CCC(N2CC(C#Cc3c(-c4ccc(Oc5ccccn5)cc4OC)c4c(N)ncnc4n3C)C2)C[C@H]1CO` (stereo partly drawn) [II-245, 1-((2S)-4-(3-((4-amino-5-(2-methoxy-4-(pyridin-2-yloxy)phenyl)-7-methyl-7H-pyrrolo[2,3-d]pyrimidin-6-yl)ethynyl)azetidin-1-yl)-2-(hydroxymethyl)piperidin-1-yl)prop-2-en-1-one], the IC50 on SRC and with RBE cells was 10 to 1000 nM each time.

As for `C=CC(=O)N1CCC(C#Cc2c(-c3ccc(Oc4ccccc4)cn3)c3c(N)ncnc3n2C(C)C)CC1` [Example I-55], the IC50 on SRC and in the experiment with RBE cells was 10 to 1000 nM each time.

For the molecule `C=CC(=O)N1C[C@@H]2[C@@H](C#Cc3c(Br)c4c(N)ncnc4n3C(C)C)[C@@H]2C1` [III-5], the IC50 at SRC and in the experiment on RBE cells was 1000 to 10000 nM each time.

Regarding `CC(C)n1c(C#CC2CCN(C(CO)c3ccccc3)CC2)c(-c2ccc(Oc3ccccc3)cc2)c2c(N)ncnc21` (centres unmarked) [II-143, 2-(4-((4-amino-7-isopropyl-5-(4-phenoxyphenyl)-7H-pyrrolo[2,3-d]pyrimidin-6-yl)ethynyl)piperidin-1-yl)-2-phenylethanol], the IC50 was in the range of 10 to 1000 nM on SRC and 1000 to 10000 nM in the experiment with RBE cells.

In the case of `C=CC(=O)N1CCC(C#Cc2c(-c3ccc(Oc4ccccc4F)cc3)c3c(N)ncnc3n2C2CCOC2)CC1` (centres unmarked) [Example I-62], the IC50 at SRC and in the experiment on RBE cells was 10 to 1000 nM throughout.

With `CC(CO)N1CCC(C#Cc2c(-c3ccc(Oc4ccccc4)cc3)c3c(N)ncnc3n2C(C)C)CC1` (centres unmarked) [II-146, 2-(4-((4-amino-7-isopropyl-5-(4-phenoxyphenyl)-7H-pyrrolo[2,3-d]pyrimidin-6-yl)ethynyl)piperidin-1-yl)propan-1-ol], the IC50 on SRC is no more than 10 nM; in the experiment on RBE cells, 10 to 1000 nM.

For `C=CC(=O)N1CCC(O)(C#Cc2c(-c3ccc(Oc4ccccc4)cc3)c3c(N)ncnc3n2C)CC1` [Example I-63], the IC50 at SRC and in the experiment on RBE cells was 10 to 1000 nM throughout.

As for `Cn1c(C#C[C@@H]2[C@H]3CN(C(=O)/C=C/CN4CCC(F)C4)C[C@@H]23)c(-c2ccc(Oc3ccccc3)cc2)c2c(N)ncnc21` (stereo partly drawn) [II-225, (E)-1-((1R,5S,6s)-6-((4-amino-7-methyl-5-(4-phenoxyphenyl)-7H-pyrrolo[2,3-d]pyrimidin-6-yl)ethynyl)-3-azabicyclo[3.1.0]hexan-3-yl)-4-(3-fluoropyrrolidin-1-yl)but-2-en-1-one], the IC50 on SRC and with RBE cells was 10 to 1000 nM in each case.

Turning to `CC(C)n1c(C#CC2CCC(C(=O)O)CC2)c(-c2ccc(Oc3ccccc3)cc2)c2c(N)ncnc21` (centres unmarked) [II-138, 4-((4-amino-7-isopropyl-5-(4-phenoxyphenyl)-7H-pyrrolo[2,3-d]pyrimidin-6-yl)ethynyl) cyclohexanecarboxylic acid], the IC50 on SRC was no more than 10 nM; with RBE cells, 10 to 1000 nM.

With `CC(C)n1c(C#CC2CCN(CCO)CC2)c(-c2ccc(Oc3ccccc3)cc2)c2c(N)ncnc21` [II-147, 2-(4-((4-amino-7-isopropyl-5-(4-phenoxyphenyl)-7H-pyrrolo[2,3-d]pyrimidin-6-yl)ethynyl)piperidin-1-yl)ethanol], the figures for the IC50 at SRC and with RBE cells were no more than 10 nM and 10 to 1000 nM, respectively.

`C=CC(=O)N1CCC(C#Cc2c(-c3ccc(Oc4ccccc4)cc3)c3c(N)ncnc3n2C(C)C)(OC)CC1` [Example I-35]: the IC50 at SRC and in the experiment with RBE cells was 10 to 1000 nM in each case.

Turning to `CC(C)n1c(C#CC2CN(C(=O)CCl)C2)c(-c2ccc(Oc3ccccc3)cc2)c2c(N)ncnc21` [Example I-6], the IC50 at SRC was no more than 10 nM; in the experiment on RBE cells, 10 to 1000 nM.

For `C=CC(=O)N1CCC(C#Cc2c(-c3cnc(Oc4ccccc4)cn3)c3c(N)ncnc3n2C(C)C)CC1` [Example I-65], the IC50 on SRC and in the experiment with RBE cells was 10 to 1000 nM each time.

Regarding `COCCN(C)C/C=C/C(=O)N1C[C@@H]2[C@@H](C#Cc3c(-c4ccc(Oc5ccccn5)c(OC)c4)c4c(N)ncnc4n3C)[C@@H]2C1` [II-231, (E)-1-((1R,5S,6s)-6-((4-amino-5-(3-methoxy-4-(pyridin-2-yloxy)phenyl)-7-methyl-7H-pyrrolo[2,3-d]pyrimidin-6-yl)ethynyl)-3-azabicyclo[3.1.0]hexan-3-yl)-4-((2-methoxyethyl) (methyl)amino) but-2-en-1-one], the IC50 at SRC and in the experiment on RBE cells was 10 to 1000 nM throughout.

Turning to `CN(C)C/C=C/C(=O)N1CC(C#Cc2c(-c3ccc(Oc4ccccc4)cc3)c3c(N)ncnc3n2C2CCOC2)C1` (centres unmarked) [Example I-67], the IC50 on SRC and in the experiment on RBE cells was 10 to 1000 nM in each case.

Regarding `C=CC(=O)N1CCC(O)(C#Cc2c(-c3ccc(Oc4ccccc4)cc3)c3c(N)ncnc3n2C2CCOC2)CC1` (centres unmarked) [Example I-70], the half-maximal inhibitory concentration (IC50) on SRC and in the experiment with RBE cells was no more than 10 nM throughout.

`C=CC(=O)N1CCC(O)(C#Cc2c(-c3ccc(Oc4ccccc4F)cc3)c3c(N)ncnc3n2C)CC1` [Example I-66]: the IC50 on SRC and in the experiment on RBE cells was 10 to 1000 nM throughout.

As for `CN(C)C/C=C/C(=O)N1CCC(O)(C#Cc2c(-c3ccc(Oc4ccccc4)cc3)c3c(N)ncnc3n2C2CCOC2)CC1` (centres unmarked) [Example I-68], the IC50 at SRC and in the experiment with RBE cells was 10 to 1000 nM throughout.
